“And” between values parts separate entries of the source, which are not always exact repeats. Equal values may be shown once. Read-outs that look alike come from different tables or passages of the source.
Columns and labels:
[1] = tested on: Klebsiella pneumoniae ATCC 700603; assay: Synergy of cannabidiol with cell-wall disrupting agent (CBD MIC in combination, FICI); format: cell-based; conditions: for FICI: CBD MIC taken as 256 μg/mL; for MIC: Klebsiella pneumoniae
Experimental: Methods were as for Example 1. Cannabidiol was tested in combination with cefotetan.
Methods were as for Example 1. Cannabidiol was tested in combination with aztreonam.
Methods were as for Example 1. Cannabidiol was tested in combination with cefepime.
Methods were as for Example 1. Cannabidiol was tested in combination with octapeptin C4.
Methods were as for Example 1. Cannabidiol was tested in combination with Spero SPR206. The experiments were carried out three times.

[2] = tested on: Enterobacter cloacae CI Patercon BoxNo: 79 (GN_016), MDR; assay: as above; conditions: for MIC: Enterobacter cloacae
[3] = Example 8, GN_016, listed as CBD

`C=C(C)C1CCC(C)=CC1c1c(O)cc(CCCCC)cc1O` (stereo not drawn) [Cannabidiol, 2-[3-methyl-6-(1-methylethenyl)-2-cyclohexen-1-yl]-5-pentyl-1,3-benzenediol] was tested, and the FICI ([1]; CBD with Spero SPR206 at 0.25 μg/mL, 3rd of 3 experiments) was 1.5, the FICI ([1]; CBD with Spero SPR206 at 0.5 μg/mL, 1st of 3 experiments) was 2 and the FICI ([1]; CBD with Spero SPR206 at 0.5 μg/mL, 3rd of 3 experiments) was 2. For the same molecule, the FICI ([1]; CBD with Spero SPR206 at 1 μg/mL, 1st of 3 experiments) was 4, the FICI ([1]; CBD with Spero SPR206 at 1 μg/mL, 3rd of 3 experiments) was 3 and the FICI ([1]; CBD with Spero SPR206 at 2 μg/mL, 1st of 3 experiments) was 8. For the same molecule, the FICI ([1]; CBD with Spero SPR206 at 2 μg/mL, 3rd of 3 experiments) was 4.004 and 4.008, the FICI ([1]; CBD with Spero SPR206 at 4 μg/mL, 1st of 3 experiments) was 16 and the FICI ([1]; CBD with Spero SPR206 at 4 μg/mL, 3rd of 3 experiments) was 8. For the same molecule, the FICI ([1]; CBD with Spero SPR206 at […], 1st of 3 experiments) was 0.5156, the “CBD MIC with Cefotetan” value ([1]; Cefotetan at 0.015 μg/mL) was over 32 µg/mL and the “CBD MIC with Cefotetan” value ([1]; Cefotetan at 0.031 μg/mL) was over 32 µg/mL. For the same molecule, the “CBD MIC with Cefotetan” value ([1]; Cefotetan at 0.062 μg/mL) was over 32 µg/mL, the “CBD MIC with Cefotetan” value ([1]; Cefotetan at 0.25 μg/mL) was over 32 µg/mL and the “CBD MIC with Cefotetan” value ([1]; Cefotetan at 0.5 μg/mL) was 0.001 µg/mL. For the same molecule, the “CBD MIC with Cefotetan” value ([1]; Cefotetan at […]) was over 32 µg/mL, the MIC ([1]; ATCC700603, Octapeptin C4 at 4 μg/mL, read-out: CBD MIC with Octapeptin C4) was 1 µg/mL and the MIC ([1]; ATCC700603, Spero SPR206 at 0.007 μg/mL, 2nd of 3 experiments, read-out: CBD MIC with Spero SPR206) was over 256 µg/mL. For the same molecule, the MIC ([1]; ATCC700603, Spero SPR206 at 0.015 μg/mL, 2nd of 3 experiments, read-out: CBD MIC with Spero SPR206) was over 256 µg/mL, the MIC ([1]; ATCC700603, Spero SPR206 at 0.031 μg/mL, 2nd of 3 experiments, read-out: CBD MIC with Spero SPR206) was over 256 µg/mL and the MIC ([1]; ATCC700603, Spero SPR206 at 0.062 μg/mL, 2nd of 3 experiments, read-out: CBD MIC with Spero SPR206) was over 256 µg/mL. The MIC ([1]; ATCC700603, Spero SPR206 at 0.25 μg/mL, 1st of 3 experiments, read-out: CBD MIC with Spero SPR206) was 0.001 µg/mL, the MIC ([1]; ATCC700603, Spero SPR206 at 0.25 μg/mL, 2nd of 3 experiments, read-out: CBD MIC with Spero SPR206) was 1 µg/mL and the MIC ([1]; ATCC700603, Spero SPR206 at 0.25 μg/mL, 3rd of 3 experiments, read-out: CBD MIC with Spero SPR206) was over 256 µg/mL. For the same molecule, the MIC ([1]; ATCC700603, Spero SPR206 at 0.5 μg/mL, 1st of 3 experiments, read-out: CBD MIC with Spero SPR206) was 0.001 µg/mL, the MIC ([1]; ATCC700603, Spero SPR206 at 0.5 μg/mL, 3rd of 3 experiments, read-out: CBD MIC with Spero SPR206) was over 256 µg/mL and the MIC ([1]; ATCC700603, Spero SPR206 at 1 μg/mL, 1st of 3 experiments, read-out: CBD MIC with Spero SPR206) was 0.001 µg/mL. The MIC ([1]; ATCC700603, Spero SPR206 at 1 μg/mL, 3rd of 3 experiments, read-out: CBD MIC with Spero SPR206) was over 256 µg/mL, the MIC ([1]; ATCC700603, Spero SPR206 at 2 μg/mL, 1st of 3 experiments, read-out: CBD MIC with Spero SPR206) was 0.001 µg/mL and the MIC ([1]; ATCC700603, Spero SPR206 at 2 μg/mL, 3rd of 3 experiments, read-out: CBD MIC with Spero SPR206) was 1 µg/mL. The MIC ([1]; ATCC700603, Spero SPR206 at 4 μg/mL, 1st of 3 experiments, read-out: CBD MIC with Spero SPR206) was 0.001 µg/mL, the MIC ([1]; ATCC700603, Spero SPR206 at 4 μg/mL, 3rd of 3 experiments, read-out: CBD MIC with Spero SPR206) was 0.001 µg/mL and the MIC ([1]; ATCC700603, read-out: CBD MIC with Spero SPR206, Spero SPR206 at […], 1st of 3 experiments) was 4 µg/mL. For the same molecule, the MIC ([1]; ATCC700603, read-out: CBD MIC with Spero SPR206, Spero SPR206 at […], 2nd of 3 experiments) was 8 µg/mL, the “CBD MIC with Octapeptin C4” value ([1]; Octapeptin C4 at 4 μg/mL, listed as CBD) was 0.5 µg/mL and the “CBD MIC with Spero SPR206” value ([1]; Spero SPR206 at 2 μg/mL, 3rd of 3 experiments, listed as CBD) was 2 µg/mL. It also gave an MIC ([2]; read-out: CBD MIC with MCC_00636 at concentration 0.25 μg/mL, Example 8, GN_016) of 2 µg/mL, an MIC ([2]; read-out: CBD MIC with MCC_00636 at concentration 0.5 μg/mL, Example 8, GN_016) of 0.5 µg/mL and an MIC ([2]; read-out: CBD MIC with MCC_00636 at concentration 1 μg/mL, Example 8, GN_016) of 0.5 µg/mL. For the same molecule, the MIC ([2]; read-out: CBD MIC with MCC_00636 at concentration 2 μg/mL, Example 8, GN_016) was 0.5 µg/mL, the MIC ([2]; read-out: CBD MIC with MCC_00636 at concentration 4 μg/mL, Example 8, GN_016) was 0.5 µg/mL and the MIC ([2]; read-out: CBD MIC with MCC_00636 at concentration 8 μg/mL, Example 8, GN_016) was 0.000977 µg/mL. The MIC ([2]; read-out: CBD MIC with MCC_09222 at concentration 8 μg/mL, Example 9, GN_016) was 2 µg/mL, the MIC ([2]; read-out: CBD MIC with MCC_09222 at concentration 16 μg/mL, Example 9, GN_016) was 1 µg/mL and the MIC ([2]; read-out: CBD MIC with MCC_09222 at concentration 32 μg/mL, Example 9, GN_016) was 1 µg/mL. For the same molecule, the MIC ([2]; read-out: CBD MIC with MCC_09222 at concentration 64 μg/mL, Example 9, GN_016) was 1 µg/mL, the MIC ([2]; read-out: CBD MIC with MCC_09222 at concentration 128 μg/mL, Example 9, GN_016) was 1 µg/mL and the “cannabidiol combined with Polymyxin B: synergy” value ([2]; Example 8) was “synergy”. For the same molecule, the “CBD MIC with MCC_00636 at concentration 0.5 μg/mL” value [2, 3] was 1 µg/mL, the “CBD MIC with MCC_00636 at concentration 1 μg/mL” value [2, 3] was 1 µg/mL and the “CBD MIC with MCC_00636 at concentration 2 μg/mL” value [2, 3] was 1 µg/mL. The “CBD MIC with MCC_00636 at concentration 4 μg/mL” value [2, 3] was 1 µg/mL, the “cannabidiol in combination with MCC_09222: synergy” value ([2]; Example 9) was “synergistic effect” and the “CBD MIC with MCC_09222 at concentration 16 μg/mL” value ([2]; Example 9, GN_016, listed as CBD) was 2 µg/mL.

— patent US20230013669A1, “Antibacterial Treatment Using a Cannabinoid and an Active Agent” (priority 2019, published 2023)
